Counter-ions that a name gives are not always drawn. Like-named read-outs stand apart in the source and are kept apart here.
Tests used:
[1] = molecular target: human DAT (Homo sapiens, UniProt Q01959); experiment: DAT transporter inhibitory activity test (neurotransmitter transporter uptake assay kit); assay type: cell-based
Method: (§1) Transporter inhibition of human DAT and NET expressed in HEK-293 cells was assessed using a neurotransmitter transporter uptake assay kit. The assay was performed as described in the kit instructions, using centanafadine as a positive control. The specific procedures were as follows:
DAT stably transfected culture: The DAT-HEK cell line was cultured in DMEM medium containing 10% fetal bovine serum and 0.2 mg/mL hygromycin B at 37° C. with 5% carbon dioxide.
DAT stably transfected cell passage: the old medium was removed, and the cells were washed once with PBS; 1 mL of TrypLE™ Express solution was then added, and the cells were incubated at 37° C. for about 2 min. When the cells were detached from the bottom of the dish, about 5 mL of complete medium pre-heated at 37° C. was added. The cell suspension was gently pipetted to separate the aggregated cells. The cell suspension was transferred to a sterile centrifuge tube and centrifuged at 1000 rpm for 5 min. In order to maintain the physiological activity of the cells, the experimental cell confluence was controlled at about 80%.
• a) After overnight transfection of NET cells, the cells were digested with trypsin, resuspended with DMEM+10% Dialyzed FBS medium, seeded into a 384-well plate at 20000 cells/well, and incubated overnight. […] After centrifuging, the plate was incubated at 37° C. for 30 min. • e) A detection reagent was prepared using 1×HBSS, and 16 μL of the detection reagent was added to each well. […] Curve fitting and IC50 calculation were performed using GraphPad Prism software nonlinear regression method.

[2] = molecular target: human SERT (Homo sapiens, UniProt P31645); experiment: Inhibitory activity assay against 5-HT transporter (neurotransmitter transporter uptake assay kit); assay type: cell-based; conditions: HEK-293 cells overexpressing human SERT; read-out: 5-HTT (IC50)
Chain of human SERT (P31645 whole entry): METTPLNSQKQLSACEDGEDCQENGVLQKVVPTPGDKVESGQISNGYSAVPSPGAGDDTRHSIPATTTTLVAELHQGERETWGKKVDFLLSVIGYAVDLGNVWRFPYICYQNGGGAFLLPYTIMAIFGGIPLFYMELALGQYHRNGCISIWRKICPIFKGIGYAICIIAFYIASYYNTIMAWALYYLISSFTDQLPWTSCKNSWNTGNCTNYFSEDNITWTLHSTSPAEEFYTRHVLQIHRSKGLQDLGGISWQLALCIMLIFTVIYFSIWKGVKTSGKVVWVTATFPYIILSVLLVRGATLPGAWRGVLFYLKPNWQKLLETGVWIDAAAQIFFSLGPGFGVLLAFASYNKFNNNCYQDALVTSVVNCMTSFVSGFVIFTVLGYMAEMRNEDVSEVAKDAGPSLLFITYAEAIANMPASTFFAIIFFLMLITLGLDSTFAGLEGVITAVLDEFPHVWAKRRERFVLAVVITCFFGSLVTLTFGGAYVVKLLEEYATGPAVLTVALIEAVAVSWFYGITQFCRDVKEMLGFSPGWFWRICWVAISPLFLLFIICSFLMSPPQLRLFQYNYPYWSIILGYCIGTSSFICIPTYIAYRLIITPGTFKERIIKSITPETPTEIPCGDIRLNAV
Method: In HEK-293 cells overexpressing human SERT, the transporter inhibitory effect of the test compound on human SERT was assayed using a Neurotransmitter transporter uptake assay kit (Molecular devices).

[3] = molecular target: human NET (Homo sapiens, UniProt P23975); experiment: NET transporter inhibitory activity test (neurotransmitter transporter uptake assay kit); assay type: cell-based
Chain of human NET (P23975 whole entry): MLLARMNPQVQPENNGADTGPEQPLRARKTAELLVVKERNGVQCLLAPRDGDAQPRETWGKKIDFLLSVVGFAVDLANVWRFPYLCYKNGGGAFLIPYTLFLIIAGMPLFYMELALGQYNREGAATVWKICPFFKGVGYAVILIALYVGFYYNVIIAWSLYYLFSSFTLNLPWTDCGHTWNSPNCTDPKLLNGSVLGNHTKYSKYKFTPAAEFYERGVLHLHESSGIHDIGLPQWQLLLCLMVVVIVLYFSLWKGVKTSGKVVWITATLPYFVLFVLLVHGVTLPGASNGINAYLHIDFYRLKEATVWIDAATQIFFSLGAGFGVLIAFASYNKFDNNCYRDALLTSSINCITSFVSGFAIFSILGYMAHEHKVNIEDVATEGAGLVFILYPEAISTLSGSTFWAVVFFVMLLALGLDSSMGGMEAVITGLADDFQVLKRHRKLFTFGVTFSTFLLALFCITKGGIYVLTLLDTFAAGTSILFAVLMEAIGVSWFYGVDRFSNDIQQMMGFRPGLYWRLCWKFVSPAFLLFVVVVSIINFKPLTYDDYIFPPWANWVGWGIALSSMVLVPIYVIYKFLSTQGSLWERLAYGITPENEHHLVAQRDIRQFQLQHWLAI
Method: as §1
First day cell plating: HEK 293T cells were digested with trypsin, centrifuged, resuspended with a medium, counted, and seeded into a 6 cm culture dish at a density of 3×10^6 cells/well.
Second day cell transfection: HEK 293T cells were subjected to medium exchange, and then A, B tubes were prepared for NET-pcDNA5/FRT plasmid to be transfected. 200 μL of Opti-MEM was added to tube A, and 10 μL of Lipofectamine™ 3000 was added. The mixture was mixed well. 200 μL of Opti-MEM was added to tube B, and 5 μg of NET-pcDNA5/FRT plasmid was added. The mixture was mixed well, and then 10 μL of P3000™ was added to tube B. The mixture was mixed well (plasmid to transfection reagent ratio 1 μg:2 μL). The diluted solution of tube A was added to the diluted solution of tube B. The mixture was mixed well, and incubated at room temperature for 15 min. Finally, the mixture was gently added to the cells that had been subjected to medium exchange, gently shaken to mix, and then incubated overnight in an incubator at 37° C. with a carbon dioxide concentration of 5%. The cells were used for compound functional activity assays 18-20 h after transfection.
• a) After overnight transfection of NET cells, the cells were digested with trypsin, resuspended with DMEM+10% Dialyzed FBS medium, seeded into a 384-well plate at 20000 cells/well, and incubated overnight. Stably transfected DAT cells were digested with trypsin, resuspended with DMEM+10% Dialyzed FBS medium, seeded into a 384-well plate at 2500 cells/well, and incubated overnight. • b) 1× Assay buffer was prepared according to the kit instruction for later use; the positive compound and the test compound were serially diluted with DMSO, and then diluted to 2× with 1× assay buffer. • c) The medium was removed from the 384-well plate by centrifugation. • d) 16 μL of the compound prepared in step b) was added to corresponding experimental wells, wherein an initial concentration of 2× positive control compound was added to the positive control well, and 0.2% DMSO buffer was added to the negative control well. After centrifuging, the plate was incubated at 37° C. for 30 min. • e) A detection reagent was prepared using 1×HBSS, and 16 μL of the detection reagent was added to each well. After centrifuging, the plate was incubated at 37° C. for 60 min. • f) After incubation, the reading at 510 nm under the excitation of the detection wavelength of 425 nm was measured using a microplate reader. Curve fitting and IC50 calculation were performed using GraphPad Prism software nonlinear regression method.

[4] = Human liver microsome assay (metabolic stability); assay type: in vitro ADME; conditions: pH 7.4, human liver microsomes 0.2 mg/mL, 1 μM test drug, NADPH, 37° C.; for half-life at 1 μM: read-out: Half-life (t1/2, min); for CLint scaled at 1 μM: read-out: Intrinsic clearance (Clint, mL/min/kg)
Method: Control and reagent: NADPH, magnesium chloride, testosterone, phosphate buffer, etc. were supplied by Dalian Meilun Biotech Co., Ltd., etc.
Liver microsome: human liver microsomes were supplied by Corning.
Experimental step: the liver microsome incubations were performed in 96-well plates, each incubation system having a volume of 200 μL, in a medium of 0.1 M phosphate buffer (pH 7.4), including liver microsomes at a final concentration of 0.2 mg/mL, 1 μM of the test drug, 3.0 mM MgCl2, 0.01% DMSO, 0.5% acetonitrile, and 2.0 mM NADPH. The incubation system described above without NADPH was pre-incubated at 37° C. for 5 min using a rotary water bath constant temperature oscillator. NADPH was added to initiate the reaction. At 0, 5, 15, 30, and 60 min, 20 μL of the sample was taken out from the incubation system after mixing well and added to 200 μL of acetonitrile containing an internal standard to terminate the reaction. Under the same conditions, 1 μM testosterone was used as a positive control to assess the reliability of the reaction system. For the negative control, phosphate buffer was used instead of NADPH, and all other incubation conditions remained the same. At 60 min, 20 μL of the sample was taken out after mixing well and added to 200 μL of termination solution containing an internal standard to terminate the reaction.
Sample analysis: After treatments such as precipitated protein extraction with an organic solvent, the incubated sample was analyzed using liquid chromatography-tandem mass spectrometry (LC-MS/MS). The concentrations of the test drug or the positive control drug in the sample were semi-quantified. The concentration in the sample was expressed using the ratio of the analyte peak area to the internal standard peak area.
Data processing and analysis: A standard curve of the In residual rate of the drug in the incubation system with respect to the incubation time was plotted by using Excel software, linear regression was performed to obtain a slope k, and the half-life T1/2 (min) and the intrinsic clearance CLint (mL/min/kg) were calculated according to the following formula: […]

[5] = system: male C57 mice; experiment: Forced swim test; assay type: in vivo; conditions: intraperitoneal injection, test 0.5 h after dosing, motionless time in last 4 min
Method: Drug: the compound of the present disclosure was first uniformly mixed with 5% DMSO and 5% Solutol® HS 15. hysiological saline was then added to make up 90% of the final volume. The mixture was prepared at an appropriate concentration immediately before use.
Animal: male C57 mice, about 22 g. The animals were randomly divided into a blank control group and test drug groups, 8 animals per group, and mice in each group were administered either the vehicle or the test compound via intraperitoneal injection.
Experimental steps: the mice were subjected to forced swim test 0.5 h after dosing. The water level in the forced swim device was 45 cm, and the water temperature was 25° C. The mice were placed in an experimental room to adapt to the environment for 1 h before the experiment began. When the experiment began, the mice were placed in the device for 6 min, and the whole process was recorded by a camera. Only the motionless time of the mice in the last 4 min was counted when data were analyzed.

[6] = In vivo metabolism (pharmacokinetic) experiment in mice; design: species or system male ICR mice; conditions: mouse, male ICR mice; for bioavailability: oral 10 mg/kg vs iv 2.5 mg/kg, read-out: F (%); for AUC(0-inf) / Cmax / half-life: oral 10 mg/kg, plasma; for AUC(0-inf): read-out: AUC0-inf(po); for Cmax: read-out: Cmax (po); for half-life: read-out: T1/2 (po) (converted)
Method: Animal: male ICR mice. The animals were randomly assigned to treatment groups and fasted for 12 h prior to dosing.
Drug: the compound of the present disclosure was dissolved in a vehicle (5% DMSO+5% Solutol HS15+90% saline). For intravenous (iv) administration, the dose was 2.5 mg/kg with a dosing volume of 5 mL/kg; for oral (po) administration, the dose was 10 mg/kg with a dosing volume of 10 mL/kg body weight. Sample collection and bioanalysis: blood was collected from the orbit of the mice and added into EP tubes containing heparin sodium at 0.083, 0.25, 0.5, 1, 2, 4, 6, and 8 h (n=3 for each time point). Immediately after blood collection, the mice were euthanized by cervical dislocation, and mouse brains were collected at the corresponding time points. All samples were promptly collected, snap-frozen, and stored at −70° C. for later use. Plasma samples were obtained by centrifugation of whole blood. 10 μL of plasma was mixed with 190 μL of internal standard solution (20 ng/ml in acetonitrile containing 0.1% formic acid). After mixing, the samples were centrifuged at 13000 rpm for 10 min, and 120 μL of the supernatant was separately collected. Depending on the sensitivity of the compound, 0.5-10 μL of the supernatant was taken for drug analysis using the appropriate liquid chromatography-tandem mass spectrometry (LC-MS/MS). Each analyte was calibrated and identified using standards. According to brain tissue: the extract (50% acetonitrile/water) at a ratio of 1 g:8 mL was homogenized for 2 min using five 3 mm magnetic beads in an OMNI Bead Ruptor 24 Elite homogenizer at 3.2 m/s and centrifuged at 4° C. and 3000 g for 3 min. 50 μL of the supernatant was mixed with 200 μL of internal standard solution (20 ng/mL in 80% acetonitrile/water). After mixing, the samples were centrifuged at 13,000 rpm for 10 min, and 120 μL of the supernatant was separately collected. Depending on the sensitivity of the compound, 0.5-10 μL of the supernatant was taken for drug analysis using the appropriate LC-MS/MS method. Each analyte was calibrated and identified using standards.
Data analysis: drug concentrations below the lower limit of quantification (LLOQ) were considered zero. Pharmacokinetic parameters were analyzed using PK Solver with a non-compartmental, bolus injection or extravascular input analysis models. Data points below the LLOQ were excluded to improve the efficacy of t1/2 calculation.

[7] = DAT stably transfected HEK cells, read-out: DAT (IC50)
[8] = NET transiently transfected HEK 293T cells, read-out: NET (IC50)

Chain of human DAT (Q01959 whole entry): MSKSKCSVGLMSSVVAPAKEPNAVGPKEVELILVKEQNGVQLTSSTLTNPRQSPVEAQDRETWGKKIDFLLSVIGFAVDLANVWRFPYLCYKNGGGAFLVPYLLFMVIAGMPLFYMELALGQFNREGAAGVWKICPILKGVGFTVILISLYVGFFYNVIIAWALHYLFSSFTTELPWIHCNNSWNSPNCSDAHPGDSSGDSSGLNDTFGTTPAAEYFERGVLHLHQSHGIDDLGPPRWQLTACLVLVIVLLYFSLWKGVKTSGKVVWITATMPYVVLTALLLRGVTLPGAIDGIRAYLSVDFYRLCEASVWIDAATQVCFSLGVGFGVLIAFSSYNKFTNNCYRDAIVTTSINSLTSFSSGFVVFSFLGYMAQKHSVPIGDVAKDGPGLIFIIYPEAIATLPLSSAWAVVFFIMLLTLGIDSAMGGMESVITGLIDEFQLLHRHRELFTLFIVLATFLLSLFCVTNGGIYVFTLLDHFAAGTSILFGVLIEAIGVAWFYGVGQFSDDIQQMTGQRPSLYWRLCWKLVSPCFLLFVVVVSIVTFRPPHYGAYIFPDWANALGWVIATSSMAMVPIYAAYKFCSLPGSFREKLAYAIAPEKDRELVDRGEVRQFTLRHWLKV

With `Nc1nc2c(s1)CC(N)(c1cccc(F)c1)CC2` (racemic) [rac-A10, 6-(3-fluorophenyl)-4,5,6,7-tetrahydrobenzothiazole-2,6-diamine] the IC50 [1, 7] was 6600 nM, the IC50 [2] was 1300 nM and the IC50 [3] was 4200 nM.

In the case of `NC1(c2ccccc2)CCCc2sccc21` (racemic) [rac-A16, 4-phenyl-4,5,6,7-tetrahydrobenzothiophen-4-amine], the half-life at 1 μM [4] is reported as 42 min, the CLint scaled at 1 μM [4] is reported as 95.5 mL/min/kg and the “Effective dose” value [5] is reported as 3 mg/kg. For the same molecule, the bioavailability [6] was 41%, the AUC(0-inf) [6] was 501 ng·h/mL and the Cmax [6] was 252 ng/mL. The half-life [6] was 1.76 h.

With `CNC1(c2ccccc2)CCCc2sc(N)nc21` (racemic) [rac-A38, N^4-methyl-4-phenyl-4,5,6,7-tetrahydrobenzothiazole-2,4-diamine] the half-life at 1 μM [4] was 98 min, the CLint scaled at 1 μM [4] was 41.3 mL/min/kg and the “Effective dose” value [5] was 3 mg/kg. The bioavailability ([6]; male, ICR, po, 10 mg/kg) was 71%, the AUC(0-inf) ([6]; male, ICR, po, 10 mg/kg) was 1620 ng·h/mL and the Cmax ([6]; male, ICR, po, 10 mg/kg) was 360 ng/mL. The half-life ([6]; male, ICR, po, 10 mg/kg) was 1.8 h.

Work on `Nc1nc2c(s1)CC(c1cccc(Cl)c1)(N1CCCC1)CC2` (racemic) [rac-A51, 6-(3-chlorophenyl)-6-(pyrrolidin-1-yl)-4,5,6,7-tetrahydrobenzothiazol-2-amine] yielded an IC50 [1, 7] of 200 nM, an IC50 [2] of 1200 nM and an IC50 [3] of 300 nM.

Molecule `NC1(c2ccccc2)CCc2[nH]ncc2C1` (racemic) [rac-A65, 5-phenyl-4,5,6,7-tetrahydro-1H-indazol-5-amine] has an IC50 [2] of 1900 nM and an IC50 [3] of 7000 nM.

`Nc1nc2c(s1)CC(NCC1CC1)(c1ccccc1)CC2` (racemic) [rac-A67, 6-phenyl-N^6-(cyclopropylmethyl)-4,5,6,7-tetrahydrobenzothiazole-2,6-diamine] gave an IC50 [3] of 3000 nM.

`CNC1(c2ccc(C(F)(F)F)cc2)CCc2nc(N)sc2C1` (racemic) [rac-A96, 6-(4-trifluoromethylphenyl)-N^6-methyl-4,5,6,7-tetrahydrobenzothiazole-2,6-diamine hydrobromide] gave an IC50 [3] of 14000 nM.

`CN(C)C1(c2ccccc2)CCc2nc(N)sc2C1` (racemic) [rac-A114, N^6,N^6-dimethyl-6-phenyl-4,5,6,7-tetrahydrobenzothiazole-2,6-diamine] showed an IC50 [1, 7] of 1000 nM, an IC50 [2] of 1000 nM and an IC50 [3] of 3500 nM.

`c1ccc2cc([C@]34CNC[C@H]3C4)ccc2c1` [Centanafadine, centanafadine, reference compound] showed an IC50 [1] of 80 nM and an IC50 [3] of 30 nM.

`c1ccc([C@@]2(N3CCCC3)CCc3[nH]ncc3C2)cc1` [R-A12] showed an IC50 [1, 7] of 2000 nM and an IC50 [3, 8] of 3800 nM.

`Nc1nc2c(s1)C[C@](c1ccccc1)(N1CCCC1)CC2` [R-A50] showed an IC50 [3, 8] of 200 nM.

Source: patent US20260174739A1 (priority 2022, published 2026)
